Experimental data: paper PMC3160846 (PLoS ONE, 2011)

Assays:
[1] = biological target: T1, ALK (Homo sapiens, UniProt Q9UM73); experiment: Kinase inhibition assay, ALK; assay type: biochemical
T1 construct: His-tagged ALK (residues V1058-P1620) containing kinase domain; His; made in house; host or cells: Sf9 insect cells
Experimental: ALK – The recombinant His-tagged ALK (residues V1058-P1620) containing kinase domain was expressed in Sf9 insect cells. The kinase assay was carried out in 96-well plates with the tested compound at 30°C for 120 min.
(§1) Composition of the reaction buffers used in different kinase inhibitory assays is described in Figure S3.
25 mM HEPES pH 7.4, 10 mM MgCl2, 4 mM MnCl2, 0.5 mM Na3VO4, 2 mM DTT, 0.02% Triton X100, 0.01% BSA, 1 μM ATP, 2 μM polyGlu4:Tyr peptide, 50~100 ng recombinant ALK.

[2] = biological target: T2, cMET (Homo sapiens, UniProt P08581); experiment: Kinase inhibition assay, cMET; assay type: biochemical
T2 construct: GST-tagged c-Met (residues K956-S1390) containing kinase domain; GST; made in house; host or cells: Sf9 insect cells
Experimental: c-Met – The recombinant GST-tagged c-Met (residues K956-S1390) containing kinase domain was expressed in Sf9 insect cells. The kinase assay was carried out in 96-well plates with the tested compound at 30°C for 120 min.
as §1
25 mM HEPES pH 7.4, 10mM MgCl2, 4 mM MnCl2, 0.5mM Na3VO4, 2 mM DTT, 0.02% Triton X100, 0.01% BSA, 1 mM ATP, 2 mM polyGlu4:Tyr peptide, 75 ng recombinant Met.

[3] = biological target: T3, FLT3 (Homo sapiens, UniProt P36888); experiment: Kinase-Glo inhibition assay, FLT3; assay type: biochemical
T3 construct: FLT3 kinase catalytic domain (residues Y567∼S993); made in house; host or cells: Sf9 insect cells
Experimental: FLT3 – GST-tagged FLT3-KDWT containing the FLT3 kinase catalytic domain (residues Y567∼S993) were expressed in Sf9 insect cells. The FLT3WT Kinase-Glo assays were carried out in 96-well plates at 30°C for 4 h with the tested compound.
as §1
75 ng GST-FLT3-KDWT proteins, 25 mM HEPES, pH 7.4, 4 mM MnCl2, 10 mM MgCl2, 2mM DTT, 0.02% Triton X-100, 0.1 mg/ml bovine serum albumin, 25 μM Her2 peptide substrate, 0.5 mM Na3VO4, and 1 μM ATP.

[4] = tested on: OECM-1 cells; experiment: Clonogenic assay, OECM-1; assay type: cell-based, Human; settings: Homo sapiens, OECM1; OECM-1, oral, p53 mutant, MDR1 negative; read-out: IC50, anti-proliferative activity
Experimental: (§2) Human lung adenocarcinoma A549 cells and NTUB1 bladder cancer cells were maintained in RPMI supplied with 10% fetal bovine serum. […] KB-derived MRP1-expressing cell line, KB-7D, was maintained in growth medium supplemented with 7 µM VP-16.
(§3) Two hundred cells in logarithmic growth phase were seeded in a 6-well plate. The cells were exposed to various concentrations of the test drugs for a three-generation period. At the end of the incubation period, cells were fixed and stained with 50% ethanol containing 0.5% methylene blue for 30 min. The plates were washed five times with water and allowed to air-dry. Colonies were countered manually. […] Each value represents the average of at least three independent experiments run in triplicates.

[5] = tested on: KB-S15 cells; experiment: Clonogenic assay, KB-S15; assay type: cell-based, Human
Experimental: as §2, §3

[6] = tested on: HONE-1 cells; experiment: Endo-replication (polyploidy), microscopy and flow cytometry, HONE-1; assay type: cell-based, Human; settings: HONE-1, 48 h
Experimental: Cell cycle progression was monitored using flow cytometry. After drug treatment, cells were trypsinized, washed with PBS and fixed in 80% ethanol at −20°C for 1 h. The fixed cells were stained with propidium iodide (containing RNase) at room temperature in the dark for 20 min. The DNA content was determined by a fluorescence-activated cell sorting IV flow cytometer (BD Biosciences, Franklin Lakes, NJ). For each analysis, 10,000 cells were counted and the percentage of cells in each phase was calculated using the ModFit LT software (Verity Software House, Topsham, ME). Experiments were repeated independently at least three times.

[7] = tested on: HONE-1 cells; experiment: Caspase-3/-7 activity imaging, HONE-1; assay type: cell-based, Human; settings: HONE-1, 60 h
Experimental: Caspase-3/-7 activity was analyzed with the MagicRed™ DEVD real-time caspase activity detection kit (catalog number #935, Immunochemistry Technologies LLC, Bloomington, MN). Briefly, cells were cultured in chamber-slides and incubated with test agents for various durations. Cells were then incubated with the Caspase-3/-7 substrate MR-(DEVD2) in culture medium for 1 hour, and then co-incubated with Hoechst 33342 for 15 min. Cells were viewed with a UV-enabled inverted-microscope at an excitation wavelength of 540 nm–560 nm and emission at 610 nm. Experiments were repeated independently at least two times.

[8] = tested on: KB cells; experiment: Autophagy (LC3 conversion, Western blot), KB; assay type: cell-based, Human; settings: 48 h or 72 h, full serum
Experimental: KB cells were treated with either DMSO (negative control) or BPR1K653 (48 h or 72 h) under full serum conditions. Cells cultured drug-free under reduced serum conditions were used as a positive control. Expression of various proteins was determined by Western blotting. The level of conversion of LC3-I to LC3-II provides an indicator of autophagic activity. (TIF) Click here for additional data file.

T3 sequence (P36888 567-993): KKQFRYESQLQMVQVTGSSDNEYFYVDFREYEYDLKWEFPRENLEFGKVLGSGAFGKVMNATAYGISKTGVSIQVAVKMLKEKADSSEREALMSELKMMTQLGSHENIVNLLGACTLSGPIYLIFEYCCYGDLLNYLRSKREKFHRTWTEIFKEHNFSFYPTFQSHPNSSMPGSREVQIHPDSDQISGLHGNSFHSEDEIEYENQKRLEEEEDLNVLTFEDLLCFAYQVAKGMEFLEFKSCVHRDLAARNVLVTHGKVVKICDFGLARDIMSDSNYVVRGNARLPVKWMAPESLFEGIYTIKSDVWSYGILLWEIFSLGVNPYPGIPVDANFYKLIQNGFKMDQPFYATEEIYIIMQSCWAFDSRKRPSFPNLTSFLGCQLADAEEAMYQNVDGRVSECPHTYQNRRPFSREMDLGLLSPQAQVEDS
T2 sequence (P08581 956-1390): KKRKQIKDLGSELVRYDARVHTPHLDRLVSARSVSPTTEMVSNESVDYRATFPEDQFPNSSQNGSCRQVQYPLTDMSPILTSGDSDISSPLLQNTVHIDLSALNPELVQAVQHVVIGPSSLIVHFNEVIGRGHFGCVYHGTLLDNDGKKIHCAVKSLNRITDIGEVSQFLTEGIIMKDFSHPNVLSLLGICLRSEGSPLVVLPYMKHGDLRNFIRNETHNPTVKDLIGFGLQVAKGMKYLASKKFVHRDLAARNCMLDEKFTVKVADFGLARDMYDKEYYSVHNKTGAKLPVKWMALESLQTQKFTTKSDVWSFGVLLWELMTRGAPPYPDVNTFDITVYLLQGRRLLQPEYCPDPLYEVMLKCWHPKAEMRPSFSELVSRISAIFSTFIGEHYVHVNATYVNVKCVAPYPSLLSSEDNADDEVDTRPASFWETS
T1 sequence (Q9UM73 1058-1620): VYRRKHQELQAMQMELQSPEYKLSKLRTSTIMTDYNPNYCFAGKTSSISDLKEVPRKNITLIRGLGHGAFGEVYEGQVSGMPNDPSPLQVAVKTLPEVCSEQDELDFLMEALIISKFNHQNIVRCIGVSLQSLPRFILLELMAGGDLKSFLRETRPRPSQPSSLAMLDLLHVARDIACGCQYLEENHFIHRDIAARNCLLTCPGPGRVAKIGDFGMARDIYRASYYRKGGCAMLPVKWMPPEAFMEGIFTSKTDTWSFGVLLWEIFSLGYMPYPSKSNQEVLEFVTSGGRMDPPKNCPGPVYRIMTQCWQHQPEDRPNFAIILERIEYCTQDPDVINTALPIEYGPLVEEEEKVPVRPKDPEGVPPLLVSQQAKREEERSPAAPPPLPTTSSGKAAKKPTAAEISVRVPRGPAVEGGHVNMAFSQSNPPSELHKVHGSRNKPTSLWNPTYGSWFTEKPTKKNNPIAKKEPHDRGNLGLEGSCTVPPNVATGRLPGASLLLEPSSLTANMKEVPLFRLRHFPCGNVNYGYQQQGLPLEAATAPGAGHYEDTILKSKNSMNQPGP

**Q.** For `CN(C)Cc1ccccc1NC(=O)Nc1ccc(CCNc2ncnc3oc(-c4ccccc4)c(Cl)c23)cc1` [BPR1K653], which IC50 [1] is on record?
**A.** Its IC50 is > 10 µM.

**Q.** What about the IC50 [2] of the same compound?
**A.** The IC50 was > 10 µM.

**Q.** What about the IC50 [3] of the same compound?
**A.** The IC50 was > 10 µM.

**Q.** And the IC50 [4]?
**A.** The IC50 was 0.135 ± 0.01 µM.

**Q.** And the IC50 ([5]; Homo sapiens, KB-S15, paclitaxol resistant, MDR1 ↑, read-out: IC50, anti-proliferative activity)?
**A.** The IC50 was 0.011 ± 0.004 µM.

**Q.** What about the “Fold difference as compare to the IC50 in the respective parental cells” value ([5]; KB-S15 vs KB) of the same compound?
**A.** Its value is 1 fold.

**Q.** What about the “formation of polyploidy (populations >4N)” value [6] of the same compound?
**A.** Its value is “promoted the formation of polyploidy”.

**Q.** What about the “apoptosis, caspase-3/-7 activity” value [7] of the same compound?
**A.** The value was “induced apoptosis”.

**Q.** And the induction of autophagy [8]?
**A.** Its induction of autophagy is “not autophagy”.
